Test results as given in the supplement of paper PMC9262897, “Low-cost anti-mycobacterial drug discovery using engineered E. coli” (Nature Communications, 2022).

What was measured:
[1] = system: E. coli TESEC strain (Mtb target enzyme); test: growth (OD600 after 10 h); higher = more growth
Experimental: (§1)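 Chemical-genetic validation profiles: TESEC strains (Mtb Asd or DapB, arabinose-inducible) or the wild-type control grown in a two-dimensional dilution series of drug (µM) and arabinose. Growth is read as OD600 after 10 h in triplicate.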

[2] = system: E. coli wild-type control; test: growth (OD600 after 10 h); higher = more growth
Experimental: as §1

CN(Cc1cc(Br)cc(Br)c1N)C1CCCCC1 [Bromhexine] (TESEC target enzyme: Mtb Asd)
growth
Conditions	drug 0.3 µM	drug 0.8 µM	drug 1.7 µM	drug 3.9 µM	drug 8.8 µM	drug 19.8 µM	drug 44.4 µM
[1], arabinose 15560 nM	0.18	0.153	–	–	–	–	–
[1], arabinose 28008 nM	0.229	0.178	–	–	–	–	–
[1], arabinose 50414 nM	0.207	0.177	–	–	–	–	–
[1], arabinose 90744 nM	0.215	0.211	–	–	–	–	–
[1], arabinose 163340 nM	0.257	0.239	–	–	–	–	–
[1], arabinose 294012 nM	0.293	0.302	–	–	–	–	–
[1], arabinose 529221 nM	0.32	0.291	–	–	–	–	–
[1], arabinose 952599 nM	0.355	0.368	–	–	–	–	–
[1], arabinose 1714678 nM	0.336	0.387	–	–	–	–	–
[1], arabinose 3086420 nM	0.328	0.361	–	–	–	–	–
[1], arabinose 5555556 nM	0.321	0.333	–	–	–	–	–
[1], arabinose 10000000 nM	0.341	0.34	–	–	–	–	–
[2], arabinose 15560 nM	0.134	0.163	0.156	0.16	0.172	0.162	–
[2], arabinose 28008 nM	0.149	0.159	0.162	0.172	0.164	0.1736	–
[2], arabinose 50414 nM	0.17	0.144	0.17	0.16	0.157	0.172	–
[2], arabinose 90744 nM	0.167	0.21	0.174	0.193	0.178	0.177	–
[2], arabinose 163340 nM	0.157	0.178	0.161	0.187	0.146	0.194	–
[2], arabinose 294012 nM	0.156	0.191	0.204	0.229	0.182	0.198	–
[2], arabinose 529221 nM	0.18	0.202	0.201	0.194	0.186	0.221	–
[2], arabinose 952599 nM	0.238	0.231	0.209	0.214	0.214	0.236	0.203
[2], arabinose 1714678 nM	0.213	0.221	0.208	0.232	0.223	0.253	0.198
[2], arabinose 3086420 nM	0.207	0.23	0.212	0.254	0.204	0.267	0.235
[2], arabinose 5555556 nM	0.189	0.214	0.206	0.198	0.201	0.218	0.232
[2], arabinose 10000000 nM	0.174	0.21	0.163	0.217	0.173	0.21	–
